Laboratory results from PMC5217372, “Activation of SsoPK4, an Archaeal eIF2α Kinase Homolog, by Oxidized CoA” (Proteomes, 2015).
Several values for one entry are separate records, joined by “and”; a condition that tells them apart may be missing. Equal values may be shown once.

T1: rSsoPK4(284–635) (Saccharolobus solfataricus, UniProt Q97U41)
T1 construct: gene SSO3182; residues 284–635 (catalytic and part of central helical repeat domain), N-terminal S-tag, C-terminal 33-residue fusion domain with polyhistidine motif, pET-29b, expressed in E. coli
T1 sequence (Q97U41 284-635): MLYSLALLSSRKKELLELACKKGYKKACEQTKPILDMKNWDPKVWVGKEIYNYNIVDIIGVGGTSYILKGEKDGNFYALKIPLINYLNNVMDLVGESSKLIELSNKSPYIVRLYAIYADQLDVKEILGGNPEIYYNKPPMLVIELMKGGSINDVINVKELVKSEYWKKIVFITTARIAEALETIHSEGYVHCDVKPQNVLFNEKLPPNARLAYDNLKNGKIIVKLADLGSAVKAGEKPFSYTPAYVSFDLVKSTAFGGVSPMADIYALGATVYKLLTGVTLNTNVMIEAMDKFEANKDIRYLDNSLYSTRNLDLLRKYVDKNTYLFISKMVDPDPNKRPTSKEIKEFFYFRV

B1: aIF2α: recombinant protein product of ORF sso1050, archaeal homologue of eIF2α from S. solfataricus (protein, UniProt Q97Z79 1-266, looked up)
Translation initiation factor …: MIYSRSKLPSEGEILIATVKQVFDYGSYVSLDEYGGLQAFLPWSEVSSKWVKNIRDVLKENRKVIVKVIRVDRRKGTVDVSLKKVTDDERRKKNLQWKKIQRLDKILELVSQKLKLSEKDAWEQVAWKLEAKYGDPITAIEKAVKEGEKILIDAGVPEIWVKPLLEEASKHAEERKVKMSGLITVRTNEPLGVEKIKEVISKALENIEQDYESLLNIKIYTIGAPRYRVDVVGTNPKEASEALNQIISNLIKIGKEENVDISVVKK
B2: MBP: myelin basic protein, exogenous phosphoacceptor substrate (protein, UniProt P02687 1-169, looked up)
Myelin basic protein: AAQKRPSQRSKYLASASTMDHARHGFLPRHRDTGILDSLGRFFGSDRGAPKRGSGKDGHHAARTTHYGSLPQKAQGHRPQDENPVVHFFKNIVTPRTPPPSQGKGRGLSLSRFSWGAEGQKPGFGYGGRASDYKSAHKGLKGHDAQGTLSKIFKLGGRDSRSGSPMARR

tested on: rSsoPK4(284–635); assay: Protein kinase activity assay (filter paper method, [γ-32P]ATP, 65 °C) of rSsoPK4(284–635); type: biochemical, Sulfolobus solfataricus; details: MBP substrate; compounds at 1 mM (Figure 8)
Protocol: (§1) Protein kinase activity was routinely assayed by the filter paper method of Corbin and Reimann as modified by Lower and Kennelly. The final volume of the assays was typically 50 μL. The quantity of rSsoPK4 assayed ranged from 0.1 to 5.0 µg. Both MgCl2 and MnCl2 were included at a final concentration of 5 mM each. The final concentration of [γ-^32P]ATP was 100 μM. The specific activity of the [γ-^32P]ATP generally ranged from 2 to 5 × 10^15 cpm/mol. Phosphoacceptor proteins were generally present at a concentration of 0.5–1.0 µg/µL. The assay mixture was typically incubated for a period of 30 min to one hour at 65 °C in 50 mM MOPS pH 7.0. On occasion, the proteins within the assay mixture were resolved by SDS-PAGE in order to identify the specific polypeptides that were phosphorylated. Radiolabeled species were visualized using an Instant Imager from Packard (Downers Grove, IL, USA).

Molecule	effect on protein kinase activity toward MBP
Oxidized glutathione	no effect

same assay, conditions: compound at 100 µM

Molecule	perturbed the activity of rSsoPK4
Nc1ncnc2c1ncn2[C@@H]1O[C@H](CO)[C@@H](OP(=O)(O)O)[C@H]1O [3ʹ-AMP]	perturbed the activity
Nc1ncnc2c1ncn2[C@@H]1O[C@H](CO)[C@H]2OP(=O)(O)O[C@H]21 [2ʹ,3ʹ-cAMP]	perturbed the activity
Nc1ncnc2c1ncn2[C@@H]1O[C@H](COP(=O)(O)OP(=O)(O)O)[C@@H](O)[C@H]1O [ADP]	perturbed the activity
Nc1ncnc2c1ncn2[C@@H]1O[C@H](COP(=O)(O)O)[C@@H](O)[C@H]1O [5'AMP, 5ʹ-AMP]	perturbed the activity
Nc1ncnc2c1ncn2[C@@H]1O[C@H](COP(=O)(O)OS(=O)(=O)O)[C@@H](O)[C@H]1O [Adenosine phosphosulfate]	perturbed the activity

same assay, conditions: effector at 100 µM; MBP as phosphoacceptor substrate

Molecule	Inhibitor
Cc1cc2nc3c(=O)[nH]c(=O)nc-3n(C[C@H](O)[C@H](O)[C@H](O)COP(=O)(O)OP(=O)(O)OC[C@H]3O[C@@H](n4cnc5c(N)ncnc54)[C@H](O)[C@@H]3O)c2cc1C [FAD^+]	N (Where a change of ±20% or less in enzyme activity was observed, the compound was designated as non-inhibitory (N))
Nc1ncnc2c1ncn2[C@@H]1O[C@H](CO)[C@@H](OP(=O)(O)O)[C@H]1O [3ʹ-AMP]	Y (designated as inhibitors (Y) if they were observed to stimulate or reduce, respectively, catalytic activity by greater than 20% relative to controls lacking added effectors)
Nc1nc2c(ncn2[C@@H]2O[C@H](COP(=O)(O)OP(=O)(O)OP(=O)(O)O)[C@@H](O)[C@H]2O)c(=O)[nH]1 [GTP]	N (Where a change of ±20% or less in enzyme activity was observed, the compound was designated as non-inhibitory (N))
Nc1ccn([C@@H]2O[C@H](COP(=O)(O)O)[C@@H](O)[C@H]2O)c(=O)n1 [5ʹ-CMP]	N (Where a change of ±20% or less in enzyme activity was observed, the compound was designated as non-inhibitory (N))
Nc1ncnc2c1ncn2[C@@H]1O[C@H](COP(=O)(O)OS(=O)(=O)O)[C@@H](OP(=O)(O)O)[C@H]1O [Phosphoadenosine phosphosulfate]	N (Where a change of ±20% or less in enzyme activity was observed, the compound was designated as non-inhibitory (N))
Nc1ncnc2c1ncn2[C@@H]1O[C@H](CO)[C@H]2OP(=O)(O)O[C@H]21 [2ʹ,3ʹ-cAMP]	Y (designated as inhibitors (Y) if they were observed to stimulate or reduce, respectively, catalytic activity by greater than 20% relative to controls lacking added effectors)
Nc1ncnc2c1ncn2[C@@H]1O[C@H](COP(=O)(O)OP(=O)(O)O)[C@@H](O)[C@H]1O [ADP]	Y (designated as inhibitors (Y) if they were observed to stimulate or reduce, respectively, catalytic activity by greater than 20% relative to controls lacking added effectors)
Nc1ncnc2c1ncn2[C@@H]1O[C@H](CSCC[C@H](N)C(=O)O)[C@@H](O)[C@H]1O [S-Adenosyl-homocysteine]	N (Where a change of ±20% or less in enzyme activity was observed, the compound was designated as non-inhibitory (N))
O=c1ccn([C@@H]2O[C@H](COP(=O)(O)O)[C@@H](O)[C@H]2O)c(=O)[nH]1 [5ʹ-UMP]	N (Where a change of ±20% or less in enzyme activity was observed, the compound was designated as non-inhibitory (N))
NC(=O)c1ccc[n+]([C@@H]2O[C@H](COP(=O)([O-])OP(=O)(O)OC[C@H]3O[C@@H](n4cnc5c(N)ncnc54)[C@H](O)[C@@H]3O)[C@@H](O)[C@H]2O)c1 [NAD^+]	N (Where a change of ±20% or less in enzyme activity was observed, the compound was designated as non-inhibitory (N))
CC(=O)SCCNC(=O)CCNC(=O)[C@H](O)C(C)(C)COP(=O)(O)OP(=O)(O)OC[C@H]1O[C@@H](n2cnc3c(N)ncnc32)[C@H](O)[C@@H]1OP(=O)(O)O [Acetyl-CoA]	N (Where a change of ±20% or less in enzyme activity was observed, the compound was designated as non-inhibitory (N))
Cc1ncc(C[n+]2csc(CCOP(=O)(O)OP(=O)(O)O)c2C)c(N)n1 [Thiamine-PPi]	N (Where a change of ±20% or less in enzyme activity was observed, the compound was designated as non-inhibitory (N))
C[S+](CC[C@H](N)C(=O)[O-])C[C@H]1O[C@@H](n2cnc3c(N)ncnc32)[C@H](O)[C@@H]1O (some centres unmarked) [S-Adenosyl-Methionine]	N (Where a change of ±20% or less in enzyme activity was observed, the compound was designated as non-inhibitory (N))
Nc1ncnc2c1ncn2[C@@H]1O[C@H](COP(=O)(O)O)[C@@H](O)[C@H]1O [5'AMP, 5ʹ-AMP]	Y (designated as inhibitors (Y) if they were observed to stimulate or reduce, respectively, catalytic activity by greater than 20% relative to controls lacking added effectors)
Nc1ncnc2c1ncn2[C@@H]1O[C@H](COP(=O)(O)OS(=O)(=O)O)[C@@H](O)[C@H]1O [Adenosine phosphosulfate]	Y (designated as inhibitors (Y) if they were observed to stimulate or reduce, respectively, catalytic activity by greater than 20% relative to controls lacking added effectors)
Nc1nc2c(ncn2[C@@H]2O[C@H](COP(=O)(O)O)[C@@H](O)[C@H]2O)c(=O)[nH]1 [5ʹ-GMP]	N (Where a change of ±20% or less in enzyme activity was observed, the compound was designated as non-inhibitory (N))
NC(=O)C1=CN([C@@H]2O[C@H](COP(=O)(O)OP(=O)(O)OC[C@H]3O[C@@H](n4cnc5c(N)ncnc54)[C@H](O)[C@@H]3O)[C@@H](O)[C@H]2O)C=CC1 [NADH]	N (Where a change of ±20% or less in enzyme activity was observed, the compound was designated as non-inhibitory (N))
Nc1ncnc2c1ncn2[C@H]1C[C@H](O)[C@@H](COP(=O)(O)O)O1 [5ʹ-dAMP]	N (Where a change of ±20% or less in enzyme activity was observed, the compound was designated as non-inhibitory (N))
NC(=O)c1ccc[n+]([C@@H]2O[C@H](COP(=O)([O-])OP(=O)(O)OC[C@H]3O[C@@H](n4cnc5c(N)ncnc54)[C@H](OP(=O)(O)O)[C@@H]3O)[C@@H](O)[C@H]2O)c1 [NADP^+]	N (Where a change of ±20% or less in enzyme activity was observed, the compound was designated as non-inhibitory (N))
CC(C)(COP(=O)(O)OP(=O)(O)OC[C@H]1O[C@@H](n2cnc3c(N)ncnc32)[C@H](O)[C@@H]1OP(=O)(O)O)[C@@H](O)C(=O)NCCC(=O)NCCS [CoASH, reduced CoA]	N (Where a change of ±20% or less in enzyme activity was observed, the compound was designated as non-inhibitory (N))
NC(=O)C1=CN([C@@H]2O[C@H](COP(=O)(O)OP(=O)(O)OC[C@H]3O[C@@H](n4cnc5c(N)ncnc54)[C@H](OP(=O)(O)O)[C@@H]3O)[C@@H](O)[C@H]2O)C=CC1 [NADPH]	N (Where a change of ±20% or less in enzyme activity was observed, the compound was designated as non-inhibitory (N))

same assay, conditions: no CoAS-SCoA; label = protein substrate; estimated

Molecule	Km	Vmax toward protein substrate
B1	~48 µM and 48 µM	4.2 nmol/min/mg
B2	145 µM	3.7 nmol/min/mg

tested on: rSsoPK4(284–635) T592D/T606D/S611D; assay: Protein kinase activity assay of rSsoPK4(284–635) T592D/T606D/S611D; type: biochemical, Sulfolobus solfataricus; details: no CoAS-SCoA; label = protein substrate
Protocol: Figure 9 CoAS-SCoA activates rSsoPK4(284–635), but not rSsoPK4(284–635) T592D/T606D/S611D, in a concentration-dependent manner. The activity of rSsoPK4(284–635) (OPEN […]) and rSsoPK4(284–635) T592D/T606D/S611D (OPEN CIRCLES) were assayed, in duplicate, in the presence of the indicated concentrations of CoAS-SCoA using MBP as substrate. Shown is a plot of the activity relative to that measured in the absence of CoAS-SCoA, which was normalized as 1.0, plus or minus mean average deviation.

Molecule	Km	Vmax toward protein substrate
B1	4 µM	1.9 nmol/min/mg
B2	17 µM	4.2 nmol/min/mg

biological target: T1, rSsoPK4(284–635); assay: Filter paper [γ-32P]ATP kinase assay with MBP as phosphoacceptor, ATP routinely 100 µM, 5 mM MgCl2 and 5 mM MnCl2, 50 mM MOPS pH 7.0, 65 °C, in the presence of nucleotide effectors.; type: biochemical; details: not given
Protocol: as §1

Molecule	IC50
Nc1ncnc2c1ncn2[C@@H]1O[C@H](COP(=O)(O)OP(=O)(O)O)[C@@H](O)[C@H]1O [ADP, adenosine 5'-diphosphate]	190 µM
Nc1ncnc2c1ncn2[C@@H]1O[C@H](CO)[C@@H](OP(=O)(O)O)[C@H]1O [3ʹ-AMP, adenosine 3'-monophosphate]	2100 µM
Nc1ncnc2c1ncn2[C@@H]1O[C@H](COP(=O)(O)O)[C@@H](O)[C@H]1O [5'AMP, adenosine 5'-monophosphate]	920 µM
